This passage reports inhibition results from patent publication US9133181B2, “Substituted 6-(4-hydroxy-phenyl)-1H-pyrazolo[3,4-b]pyridine derivatives as kinase inhibitors” (SANOFI, priority 2012, dated 2015).

The inhibition is the change of the read-out against control, counted positive when it falls.

The test deals with T1, human full-length recombinant PKC βII (Homo sapiens, UniProt P05771).
T1 construct: Active human full-length recombinant PKC βII; purchased Invitrogen GmbH, Darmstadt, Germany
T1 sequence (P05771 1-673 isoform P05771-2): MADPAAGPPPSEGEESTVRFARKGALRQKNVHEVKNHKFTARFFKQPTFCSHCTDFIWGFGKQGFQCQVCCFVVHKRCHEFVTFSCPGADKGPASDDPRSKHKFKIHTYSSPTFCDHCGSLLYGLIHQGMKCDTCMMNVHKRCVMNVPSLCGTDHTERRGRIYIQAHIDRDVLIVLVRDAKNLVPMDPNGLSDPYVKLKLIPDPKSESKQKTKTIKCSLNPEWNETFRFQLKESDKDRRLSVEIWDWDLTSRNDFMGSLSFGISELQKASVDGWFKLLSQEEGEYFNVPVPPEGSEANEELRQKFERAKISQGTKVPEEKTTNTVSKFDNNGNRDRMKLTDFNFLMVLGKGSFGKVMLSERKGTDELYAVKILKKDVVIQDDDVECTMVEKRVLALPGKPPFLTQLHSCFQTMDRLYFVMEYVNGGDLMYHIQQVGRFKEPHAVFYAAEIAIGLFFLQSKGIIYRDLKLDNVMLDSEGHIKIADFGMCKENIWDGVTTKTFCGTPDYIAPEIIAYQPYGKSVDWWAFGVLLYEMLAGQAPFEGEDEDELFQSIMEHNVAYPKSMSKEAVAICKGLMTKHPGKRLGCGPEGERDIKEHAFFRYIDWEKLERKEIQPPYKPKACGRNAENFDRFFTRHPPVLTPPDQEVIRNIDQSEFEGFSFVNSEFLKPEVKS
Description: Determination of PKC βII inhibition (Caliper mobility shift kinase assay). The format is biochemical. The settings on record: final compound concentration 1.14 μM (±0.15 μM); 60 min incubation at 32° C. Summed up: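 Compound was tested at a final 1.14 µM (±0.15 µM), with % inhibition derived from the product/(substrate+product) peak ratio on a Caliper mobility-shift read-out. Full-length PKC βII was activated by CaCl2, PS and DAG in pH 7.4 Hepes/MgCl2. Peptide and ATP were at 3 µM and 120 µM in the added mix. Incubation was 60 min at 32 °C.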
With `Cc1n[nH]c2nc(-c3ccc(O)cc3F)cc(CN3CC(C)(C)NC[C@H]3C)c12` [Example 123, 3-Fluoro-4-[3-methyl-4-((R)-2,5,5-trimethyl-piperazin-1-ylmethyl)-1H-pyrazolo[3,4-b]pyridin-6-yl]-phenol], the inhibition at 1.14 µM amounted to 88%.

Consider `Cc1n[nH]c2nc(-c3ccc(O)cc3F)cc(CN3CC(C)(C)NC[C@@H]3C)c12` [Example 124, 3-Fluoro-4-[3-methyl-4-((S)-2,5,5-trimethyl-piperazin-1-ylmethyl)-1H-pyrazolo[3,4-b]pyridin-6-yl]-phenol], for which the inhibition at 1.14 µM was found to be 83%.

As for `Cc1n[nH]c2nc(-c3ccc(O)cc3F)cc(CN3CC(C)(C)NC[C@]3(C)C3CC3)c12` [Example 125, 4-[4-((S)-2-Cyclopropyl-2,5,5-trimethyl-piperazin-1-ylmethyl)-3-methyl-1H-pyrazolo[3,4-b]pyridin-6-yl]-3-fluoro-phenol], the inhibition at 1.14 µM was determined as 87%.

On to `Cc1n[nH]c2nc(-c3ccc(O)cc3F)cc(CN3CC(C)(C)NC[C@@]3(C)C3CC3)c12` [Example 126, 4-[4-((R)-2-Cyclopropyl-2,5,5-trimethyl-piperazin-1-ylmethyl)-3-methyl-1H-pyrazolo[3,4-b]pyridin-6-yl]-3-fluoro-phenol], for which the inhibition at 1.14 µM is 91%.

In the case of `Cc1n[nH]c2nc(-c3ccc(O)cc3F)cc(CN3C[C@H](C)NCC34CCCC4)c12` [Example 127, 3-Fluoro-4-[3-methyl-4-((S)-8-methyl-6,9-diaza-spiro[4.5]dec-6-ylmethyl)-1H-pyrazolo[3,4-b]pyridin-6-yl]-phenol], the inhibition at 1.14 µM was found to be 87%.

Turning to `Cc1n[nH]c2nc(-c3ccc(O)cc3F)cc(CN3C[C@@H](C)NCC34CCCC4)c12` [Example 128, 3-Fluoro-4-[3-methyl-4-((R)-8-methyl-6,9-diaza-spiro[4.5]dec-6-ylmethyl)-1H-pyrazolo[3,4-b]pyridin-6-yl]-phenol], the inhibition at 1.14 µM came out at 71%.

On to `Cc1n[nH]c2nc(-c3ccc(O)cc3F)cc(CN3C[C@H](C(C)C)NCC3(C)C)c12` [Example 129, 3-Fluoro-4-[4-((S)-5-isopropyl-2,2-dimethyl-piperazin-1-ylmethyl)-3-methyl-1H-pyrazolo[3,4-b]pyridin-6-yl]-phenol], for which the inhibition at 1.14 µM worked out at 97%.

Take `Cc1n[nH]c2nc(-c3ccc(O)cc3F)cc(CN3C[C@@H](C(C)C)NCC3(C)C)c12` [Example 130, 3-Fluoro-4-[4-((R)-5-isopropyl-2,2-dimethyl-piperazin-1-ylmethyl)-3-methyl-1H-pyrazolo[3,4-b]pyridin-6-yl]-phenol]: the inhibition at 1.14 µM was found to be 98%.

Regarding `Cc1n[nH]c2nc(-c3ccc(O)cc3)cc(CN3C[C@H](C)NCC3(C)C)c12` [Example 131, 4-[3-Methyl-4-((S)-2,2,5-trimethyl-piperazin-1-ylmethyl)-1H-pyrazolo[3,4-b]pyridin-6-yl]-phenol], the inhibition at 1.14 µM is 103%.

Consider `Cc1n[nH]c2nc(-c3ccc(O)cc3)cc(CN3C[C@@H](C)NCC3(C)C)c12` [Example 132, 4-[3-Methyl-4-((R)-2,2,5-trimethyl-piperazin-1-ylmethyl)-1H-pyrazolo[3,4-b]pyridin-6-yl]-phenol], for which the inhibition at 1.14 µM is 97%.

Consider `Cc1n[nH]c2nc(-c3ccc(O)cc3F)cc(CN3CC(C)(C)NC[C@@H]3C(C)C)c12` [Example 133, 3-Fluoro-4-[4-((S)-2-isopropyl-5,5-dimethyl-piperazin-1-ylmethyl)-3-methyl-1H-pyrazolo[3,4-b]pyridin-6-yl]-phenol], for which the inhibition at 1.14 µM came out at 103%.

As to `Cc1n[nH]c2nc(-c3ccc(O)cc3F)cc(CN3CC(C)(C)NC[C@H]3C(C)C)c12` [Example 134, 3-Fluoro-4-[4-((R)-2-isopropyl-5,5-dimethyl-piperazin-1-ylmethyl)-3-methyl-1H-pyrazolo[3,4-b]pyridin-6-yl]-phenol], the inhibition at 1.14 µM turned out to be 102%.

Consider `CC[C@]1(C)CN(Cc2cc(-c3ccc(O)cc3F)nc3[nH]nc(C)c23)C(C)(C)CN1` [Example 135, 4-[4-((R)-5-Ethyl-2,2,5-trimethyl-piperazin-1-ylmethyl)-3-methyl-1H-pyrazolo[3,4-b]pyridin-6-yl]-3-fluoro-phenol], for which the inhibition at 1.14 µM turned out to be 106%.

Take `CC[C@@]1(C)CN(Cc2cc(-c3ccc(O)cc3F)nc3[nH]nc(C)c23)C(C)(C)CN1` [Example 136, 4-[4-((S)-5-Ethyl-2,2,5-trimethyl-piperazin-1-ylmethyl)-3-methyl-1H-pyrazolo[3,4-b]pyridin-6-yl]-3-fluoro-phenol]: the inhibition at 1.14 µM is 104%.

On to `Cc1n[nH]c2nc(-c3ccc(O)cc3F)cc(CN3CC4(CCCC4)NC[C@@H]3C)c12` [Example 137, 3-Fluoro-4-[3-methyl-4-((S)-8-methyl-6,9-diaza-spiro[4.5]dec-9-ylmethyl)-1H-pyrazolo[3,4-b]pyridin-6-yl]-phenol], for which the inhibition at 1.14 µM came out at 98%.

Turning to `Cc1n[nH]c2nc(-c3ccc(O)cc3F)cc(CN3CC4(CCCC4)NC[C@H]3C)c12` [Example 138, 3-Fluoro-4-[3-methyl-4-((R)-8-methyl-6,9-diaza-spiro[4.5]dec-9-ylmethyl)-1H-pyrazolo[3,4-b]pyridin-6-yl]-phenol], the inhibition at 1.14 µM came to 98%.

`Cc1n[nH]c2nc(-c3ccc(O)cc3)cc(CN3CC(C)(C)NC[C@@H]3C)c12` [Example 139, 4-[3-Methyl-4-((S)-2,5,5-trimethyl-piperazin-1-ylmethyl)-1H-pyrazolo[3,4-b]pyridin-6-yl]-phenol]: the inhibition at 1.14 µM is 95%.

Turning to `Cc1n[nH]c2nc(-c3ccc(O)cc3)cc(CN3CC(C)(C)NC[C@H]3C)c12` [Example 140, 4-[3-Methyl-4-((R)-2,5,5-trimethyl-piperazin-1-ylmethyl)-1H-pyrazolo[3,4-b]pyridin-6-yl]-phenol], the inhibition at 1.14 µM is 98%.

For the compound `CC[C@]1(C)CNC(C)(C)CN1Cc1cc(-c2ccc(O)cc2)nc2[nH]nc(C)c12` [Example 141, 4-[4-((R)-2-Ethyl-2,5,5-trimethyl-piperazin-1-ylmethyl)-3-methyl-1H-pyrazolo[3,4-b]pyridin-6-yl]-phenol], the inhibition at 1.14 µM came out at 98%.

As for `CC[C@@]1(C)CNC(C)(C)CN1Cc1cc(-c2ccc(O)cc2)nc2[nH]nc(C)c12` [Example 142, 4-[4-((S)-2-Ethyl-2,5,5-trimethyl-piperazin-1-ylmethyl)-3-methyl-1H-pyrazolo[3,4-b]pyridin-6-yl]-phenol], the inhibition at 1.14 µM came out at 100%.

Consider `CC[C@H]1CNC(C)(C)CN1Cc1cc(-c2ccc(O)cc2F)nc2[nH]nc(C)c12` [Example 143, 4-[4-((S)-2-Ethyl-5,5-dimethyl-piperazin-1-ylmethyl)-3-methyl-1H-pyrazolo[3,4-b]pyridin-6-yl]-3-fluoro-phenol], for which the inhibition at 1.14 µM amounted to 101%.

`CC[C@@H]1CNC(C)(C)CN1Cc1cc(-c2ccc(O)cc2F)nc2[nH]nc(C)c12` [Example 144, 4-[4-((R)-2-Ethyl-5,5-dimethyl-piperazin-1-ylmethyl)-3-methyl-1H-pyrazolo[3,4-b]pyridin-6-yl]-3-fluoro-phenol]: the inhibition at 1.14 µM stood at 98%.

For `CC[C@H]1CNC(C)(C)CN1Cc1cc(-c2ccc(O)cc2)nc2[nH]nc(C)c12` [Example 145, 4-[4-((S)-2-Ethyl-5,5-dimethyl-piperazin-1-ylmethyl)-3-methyl-1H-pyrazolo[3,4-b]pyridin-6-yl]-phenol], the inhibition at 1.14 µM turned out to be 95%.

Consider `CC[C@@H]1CNC(C)(C)CN1Cc1cc(-c2ccc(O)cc2)nc2[nH]nc(C)c12` [Example 146, 4-[4-((R)-2-Ethyl-5,5-dimethyl-piperazin-1-ylmethyl)-3-methyl-1H-pyrazolo[3,4-b]pyridin-6-yl]-phenol], for which the inhibition at 1.14 µM came to 99%.

Take `Cc1n[nH]c2nc(-c3ccc(O)cc3F)cc(CN3CCC[C@](C)(N)C3)c12` [Example 147, 4-[4-((S)-3-Amino-3-methyl-piperidin-1-ylmethyl)-3-methyl-1H-pyrazolo[3,4-b]pyridin-6-yl]-3-fluoro-phenol]: the inhibition at 1.14 µM is 100%.

As to `Cc1n[nH]c2nc(-c3ccc(O)cc3F)cc(CN3CCC[C@@](C)(N)C3)c12` [Example 148, 4-[4-((R)-3-Amino-3-methyl-piperidin-1-ylmethyl)-3-methyl-1H-pyrazolo[3,4-b]pyridin-6-yl]-3-fluoro-phenol], the inhibition at 1.14 µM was 99%.

As for `Cc1n[nH]c2nc(-c3ccc(O)cc3F)cc(CN3C[C@@](C)(C4CC4)NCC3(C)C)c12` [Example 149, 4-[4-((R)-5-Cyclopropyl-2,2,5-trimethyl-piperazin-1-ylmethyl)-3-methyl-1H-pyrazolo[3,4-b]pyridin-6-yl]-3-fluoro-phenol], the inhibition at 1.14 µM was found to be 98%.

For `Cc1n[nH]c2nc(-c3ccc(O)cc3F)cc(CN3C[C@](C)(C4CC4)NCC3(C)C)c12` [Example 150, 4-[4-((S)-5-Cyclopropyl-2,2,5-trimethyl-piperazin-1-ylmethyl)-3-methyl-1H-pyrazolo[3,4-b]pyridin-6-yl]-3-fluoro-phenol], the inhibition at 1.14 µM was determined as 100%.

For the compound `Cc1n[nH]c2nc(-c3ccc(O)cc3F)cc(CN3C[C@H](C)NC[C@@H]3C(F)(F)F)c12` [Example 151, 3-Fluoro-4-[3-methyl-4-((2R,5S)-5-methyl-2-trifluoromethyl-piperazin-1-ylmethyl)-1H-pyrazolo[3,4-b]pyridin-6-yl]-phenol], the inhibition at 1.14 µM is 90%.

Turning to `Cc1n[nH]c2nc(-c3ccc(O)cc3F)cc(CN3C[C@@H](C)NC[C@@H]3C(F)(F)F)c12` [Example 152, 3-Fluoro-4-[3-methyl-4-((2R,5R)-5-methyl-2-trifluoromethyl-piperazin-1-ylmethyl)-1H-pyrazolo[3,4-b]pyridin-6-yl]-phenol], the inhibition at 1.14 µM amounted to 93%.

Regarding `Cc1n[nH]c2nc(-c3ccc(O)cc3F)cc(CN3C[C@@H](C)NC[C@H]3C(F)(F)F)c12` [Example 153, 3-Fluoro-4-[3-methyl-4-((2S,5R)-5-methyl-2-trifluoromethyl-piperazin-1-ylmethyl)-1H-pyrazolo[3,4-b]pyridin-6-yl]-phenol], the inhibition at 1.14 µM amounted to 97%.
